Tested on: 633275-114-R-J1-PDC complex spheroids, viability
Experiment: Anticancer human tumor 633275-114-R-J1-PDC patient-derived endometrial adenocarcinoma cell line growth inhibition [GQUAD]
Conditions: for IC50: curve of first compound; for viability, T/C: stronger effect = lower value
How it was run: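 Multi-cell-type spheroids of tumor cells with HUVEC and mesenchymal stem cells, treated with drug combinations. Concentrations descend in half-log steps from near clinical Cmax, or from 10 microM where Cmax is unknown; viability read-out.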

[1] = second compound 0.0316 µM, first compound 0.0316 µM
[2] = second compound 0.0316 µM, first compound 0.1 µM
[3] = second compound 0.0316 µM, first compound 0.316 µM
[4] = second compound 0.0316 µM, first compound 1 µM
[5] = second compound 0.0316 µM, first compound 3.16 µM
[6] = second compound 0.0316 µM, first compound 10 µM
[7] = second compound 0.1 µM, first compound 0.0316 µM
[8] = second compound 0.1 µM, first compound 0.1 µM
[9] = second compound 0.1 µM, first compound 0.316 µM
[10] = second compound 0.1 µM, first compound 1 µM
[11] = second compound 0.1 µM, first compound 3.16 µM
[12] = second compound 0.1 µM, first compound 10 µM
[13] = second compound 0.316 µM, first compound 0.0316 µM
[14] = second compound 0.316 µM, first compound 0.1 µM
[15] = second compound 0.316 µM, first compound 0.316 µM
[16] = second compound 0.316 µM, first compound 1 µM
[17] = second compound 0.316 µM, first compound 3.16 µM
[18] = second compound 0.316 µM, first compound 10 µM
[19] = second compound 1 µM, first compound 0.0316 µM
[20] = second compound 1 µM, first compound 0.1 µM
[21] = second compound 1 µM, first compound 0.316 µM
[22] = second compound 1 µM, first compound 1 µM
[23] = second compound 1 µM, first compound 3.16 µM
[24] = second compound 1 µM, first compound 10 µM
[25] = second compound 3.16 µM, first compound 0.0316 µM
[26] = second compound 3.16 µM, first compound 0.1 µM
[27] = second compound 3.16 µM, first compound 0.316 µM
[28] = second compound 3.16 µM, first compound 1 µM
[29] = second compound 3.16 µM, first compound 3.16 µM
[30] = second compound 3.16 µM, first compound 10 µM
[31] = second compound 10 µM, first compound 0.0316 µM
[32] = second compound 10 µM, first compound 0.1 µM
[33] = second compound 10 µM, first compound 0.316 µM
[34] = second compound 10 µM, first compound 1 µM
[35] = second compound 10 µM, first compound 3.16 µM
[36] = second compound 10 µM, first compound 10 µM
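Note: spheroids exposed to the agents for seven days.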
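Throughout, for viability, T/C: percent of DMSO vehicle control viability which is 100%.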

## CC(C)(O)C1CCC(Nc2ccc3ncc(-c4cccc(C(F)(F)F)c4)n3n2)CC1 (stereo not drawn) + Cc1cnc(CNC(=O)c2c(=O)c3ccc(N4CCCN(C)CC4)nc3n3c2sc2ccccc23)cn1
Second compound 0.0316 µM
  IC50: 0.886 µM
Second compound 0.1 µM
  IC50: < 0.0316 µM
Second compound 0.316 µM
  IC50: < 0.0316 µM
Second compound 1 µM
  IC50: < 0.0316 µM
Second compound 3.16 µM
  IC50: < 0.0316 µM
Second compound 10 µM
  IC50: < 0.0316 µM
[1]
  viability, T/C: 64.2%
[2]
  viability, T/C: 66.3%
[3]
  viability, T/C: 64.7%
[4]
  viability, T/C: 48.2%
[5]
  viability, T/C: 22.2%
[6]
  viability, T/C: 32.5%
[7]
  viability, T/C: 52.1%
[8]
  viability, T/C: 52.7%
[9]
  viability, T/C: 44.5%
[10]
  viability, T/C: 39.9%
[11]
  viability, T/C: 19.4%
[12]
  viability, T/C: 26.1%
[13]
  viability, T/C: 46.1%
[14]
  viability, T/C: 42.3%
[15]
  viability, T/C: 45.5%
[16]
  viability, T/C: 35.8%
[17]
  viability, T/C: 18.6%
[18]
  viability, T/C: 22.3%
[19]
  viability, T/C: 43.8%
[20]
  viability, T/C: 43.5%
[21]
  viability, T/C: 42.6%
[22]
  viability, T/C: 34.6%
[23]
  viability, T/C: 16.5%
[24]
  viability, T/C: 19.8%
[25]
  viability, T/C: 38.3%
[26]
  viability, T/C: 40.4%
[27]
  viability, T/C: 39.7%
[28]
  viability, T/C: 28%
[29]
  viability, T/C: 0.11%
[30]
  viability, T/C: 7.92%
[31]
  viability, T/C: 30.7%
[32]
  viability, T/C: 33.9%
[33]
  viability, T/C: 30.4%
[34]
  viability, T/C: 15.6%
[35]
  viability, T/C: 0.2%
[36]
  viability, T/C: 0.19%

## CCCS(=O)(=O)Nc1ccc(F)c(C(=O)c2c[nH]c3ncc(-c4ccc(Cl)cc4)cc23)c1F + Cc1cnc(CNC(=O)c2c(=O)c3ccc(N4CCCN(C)CC4)nc3n3c2sc2ccccc23)cn1
Second compound 0.0316 µM
  IC50: 5.34 µM
Second compound 0.1 µM
  IC50: 3.83 µM
Second compound 0.316 µM
  IC50: 1.46 µM
Second compound 1 µM
  IC50: < 0.0316 µM
Second compound 3.16 µM
  IC50: < 0.0316 µM
Second compound 10 µM
  IC50: < 0.0316 µM
[1]
  viability, T/C: 68.7%
[2]
  viability, T/C: 67.6%
[3]
  viability, T/C: 72.9%
[4]
  viability, T/C: 77%
[5]
  viability, T/C: 69.4%
[6]
  viability, T/C: 26.3%
[7]
  viability, T/C: 55.9%
[8]
  viability, T/C: 53.1%
[9]
  viability, T/C: 56.1%
[10]
  viability, T/C: 58.1%
[11]
  viability, T/C: 56.4%
[12]
  viability, T/C: 20.7%
[13]
  viability, T/C: 49%
[14]
  viability, T/C: 53.3%
[15]
  viability, T/C: 50.8%
[16]
  viability, T/C: 54%
[17]
  viability, T/C: 46.8%
[18]
  viability, T/C: 19.3%
[19]
  viability, T/C: 40.7%
[20]
  viability, T/C: 43.6%
[21]
  viability, T/C: 47.7%
[22]
  viability, T/C: 47.3%
[23]
  viability, T/C: 43.3%
[24]
  viability, T/C: 13.6%
[25]
  viability, T/C: 37.2%
[26]
  viability, T/C: 37.1%
[27]
  viability, T/C: 36.7%
[28]
  viability, T/C: 40.3%
[29]
  viability, T/C: 40.6%
[30]
  viability, T/C: 7.26%
[31]
  viability, T/C: 30.6%
[32]
  viability, T/C: 33.1%
[33]
  viability, T/C: 34%
[34]
  viability, T/C: 35.9%
[35]
  viability, T/C: 27.8%
[36]
  viability, T/C: 0.18%

## Cc1[nH]c2ccccc2c1CCNCc1ccc(/C=C/C(=O)NO)cc1 + Cc1cnc(CNC(=O)c2c(=O)c3ccc(N4CCCN(C)CC4)nc3n3c2sc2ccccc23)cn1
Second compound 0.0316 µM
  IC50: 0.013 µM
Second compound 0.1 µM
  IC50: 0.00349 µM
Second compound 0.316 µM
  IC50: < 0.000999 µM
Second compound 1 µM
  IC50: < 0.000999 µM
Second compound 3.16 µM
  IC50: < 0.000999 µM
Second compound 10 µM
  IC50: < 0.000999 µM
Second compound 0.0316 µM, first compound 0.000999 µM
  viability, T/C: 65.8%
Second compound 0.0316 µM, first compound 0.00316 µM
  viability, T/C: 59.5%
Second compound 0.0316 µM, first compound 0.00999 µM
  viability, T/C: 52.6%
[1]
  viability, T/C: 41.3%
Second compound 0.0316 µM, first compound 0.0999 µM
  viability, T/C: 32%
[3]
  viability, T/C: 16.2%
Second compound 0.1 µM, first compound 0.000999 µM
  viability, T/C: 56.1%
Second compound 0.1 µM, first compound 0.00316 µM
  viability, T/C: 48%
Second compound 0.1 µM, first compound 0.00999 µM
  viability, T/C: 45.2%
[7]
  viability, T/C: 38%
Second compound 0.1 µM, first compound 0.0999 µM
  viability, T/C: 25.4%
[9]
  viability, T/C: 15.1%
Second compound 0.316 µM, first compound 0.000999 µM
  viability, T/C: 50.4%
Second compound 0.316 µM, first compound 0.00316 µM
  viability, T/C: 40.7%
Second compound 0.316 µM, first compound 0.00999 µM
  viability, T/C: 37.5%
[13]
  viability, T/C: 30.9%
Second compound 0.316 µM, first compound 0.0999 µM
  viability, T/C: 21.7%
[15]
  viability, T/C: 9.86%
Second compound 1 µM, first compound 0.000999 µM
  viability, T/C: 44.3%
Second compound 1 µM, first compound 0.00316 µM
  viability, T/C: 38.2%
Second compound 1 µM, first compound 0.00999 µM
  viability, T/C: 34.8%
[19]
  viability, T/C: 33.1%
Second compound 1 µM, first compound 0.0999 µM
  viability, T/C: 21.4%
[21]
  viability, T/C: 8.16%
Second compound 3.16 µM, first compound 0.000999 µM
  viability, T/C: 38.3%
Second compound 3.16 µM, first compound 0.00316 µM
  viability, T/C: 32.1%
Second compound 3.16 µM, first compound 0.00999 µM
  viability, T/C: 31.9%
[25]
  viability, T/C: 27.7%
Second compound 3.16 µM, first compound 0.0999 µM
  viability, T/C: 16.6%
[27]
  viability, T/C: 0.13%
Second compound 10 µM, first compound 0.000999 µM
  viability, T/C: 27.3%
Second compound 10 µM, first compound 0.00316 µM
  viability, T/C: 31.2%
Second compound 10 µM, first compound 0.00999 µM
  viability, T/C: 27.7%
[31]
  viability, T/C: 24.8%
Second compound 10 µM, first compound 0.0999 µM
  viability, T/C: 16.5%
[33]
  viability, T/C: 0.21%

## O=C(NO)c1cnc(N2CCN(S(=O)(=O)c3ccc4ccccc4c3)CC2)nc1 + Cc1cnc(CNC(=O)c2c(=O)c3ccc(N4CCCN(C)CC4)nc3n3c2sc2ccccc23)cn1
Second compound 0.0316 µM
  IC50: 0.109 µM
Second compound 0.1 µM
  IC50: < 0.0316 µM
Second compound 0.316 µM
  IC50: < 0.0316 µM
Second compound 1 µM
  IC50: < 0.0316 µM
Second compound 3.16 µM
  IC50: < 0.0316 µM
Second compound 10 µM
  IC50: < 0.0316 µM
[1]
  viability, T/C: 54%
[2]
  viability, T/C: 53.5%
[3]
  viability, T/C: 33.2%
[4]
  viability, T/C: 15.1%
[5]
  viability, T/C: 12.3%
[6]
  viability, T/C: 4.21%
[7]
  viability, T/C: 48.3%
[8]
  viability, T/C: 42.8%
[9]
  viability, T/C: 31%
[10]
  viability, T/C: 16.3%
[11]
  viability, T/C: 10.7%
[12]
  viability, T/C: 4.01%
[13]
  viability, T/C: 40.8%
[14]
  viability, T/C: 42.9%
[15]
  viability, T/C: 23.7%
[16]
  viability, T/C: 14.1%
[17]
  viability, T/C: 7.68%
[18]
  viability, T/C: 1.96%
[19]
  viability, T/C: 40.4%
[20]
  viability, T/C: 36.3%
[21]
  viability, T/C: 22.4%
[22]
  viability, T/C: 7.98%
[23]
  viability, T/C: 3.91%
[24]
  viability, T/C: 0.11%
[25]
  viability, T/C: 37.8%
[26]
  viability, T/C: 34.1%
[27]
  viability, T/C: 20.5%
[28]
  viability, T/C: 0.25%
[29]
  viability, T/C: 0.07%
[30]
  viability, T/C: 0.11%
[31]
  viability, T/C: 31.9%
[32]
  viability, T/C: 27.6%
[33]
  viability, T/C: 21.5%
[34]
  viability, T/C: 0.17%
[35]
  viability, T/C: 0.14%
[36]
  viability, T/C: 0.18%

— PubChem BioAssay AID2060505 (Molecular Pharmacology Branch, DTP, NCI, 2025)
